Converted amounts (≈) assume the structure as drawn.
These molecules were tested on AGE production (assay: Assay of inhibition effect on AGE production (BSA with fructose and glucose, fluorescence analysis)). Details: 10 mg/ml BSA, 0.2 M fructose and glucose, 37° for 7 days; fluorescence Ex 360 nm/Em 465 nm; average ± standard deviation.
Type: biochemical, bovine
Method: After preparing 10 mg/ml bovine serum albumin (BSA) dissolved in 50 mM of phosphate buffer (pH 7.4), AGE production was induced by culturing the mixture of 0.2 M of fructose and glucose at 37 °C for 7 days. The compounds extracted from Morus Bark and prepared from Example 1 to 8 was handled in the concentration of 0.1 μg/Ml respectively. (All the compounds were dissolved in 100% of ethanol.) Pyridoxamine known for AGE inhibitor was used as a positive control group. AGE production was induced by using only fructose and glucose to BSA culturing at 37 °C for 7 days. It was handled in the concentration of 0.1 μg/Ml to 1000 μg/Ml.
After 7 days, the amount of AGE produced in culture medium was measured by using microplate reader (Excitation: 360 nm, Emission: 465 nm, fluorescence analysis).
The rate of inhibiting the production was counted by the following numerical formula. […] Also, the average and standard deviation of IC50 value were calculated from at least 3 independent experiments.
The rate of inhibiting the production (%)=100−(Fluorescence intensity of Experimental group−Fluorescence intensity of Reference)/(Fluorescence intensity of Control group−Fluorescence intensity of Control-Reference)×100
With `CC1=C[C@H]2c3c(O)cc(-c4cc5ccc(O)cc5o4)cc3O[C@@]3(c4ccc(O)cc4O)Oc4cc(O)ccc4[C@H](C1)[C@@H]23` [Example. 1, Mulberrofuran G] the IC50 was 79.5 ± 19.4 µM and the “IC50 value” was 44.7 ± 10.9 µg/mL (≈ 79.5 µM).
`CC12CC(c3ccc(O)cc3O1)C13OC1(c1ccc(O)cc1O)Oc1cc(/C=C/c4ccc(O)cc4O)cc(O)c1C3C2=O` (centres unmarked) [Example. 4, Kuwanon Z] was tested, and the IC50 was 46.1 ± 11.8 µM and the “IC50 value” was 27.4 ± 7.0 µg/mL (≈ 46.1 µM).
`Oc1cc(O)cc(/C=C/c2ccc(O)cc2O)c1` [Example. 5, Oxyresveratrol] was tested, and the IC50 was 19.3 ± 4.1 µM and the “IC50 value” was 4.7 ± 1.0 µg/mL (≈ 19.2 µM).
In the case of `O=C1CC(c2ccc(O)cc2O)Oc2cc(O)cc(O)c21` (centres unmarked) [Example. 6, 2′,4′,5,7-tetrahydroxyflavanone], the IC50 is reported as 96.2 ± 10.1 µM and the “IC50 value” is reported as 27.7 ± 2.9 µg/mL (≈ 96.1 µM).
For `CC(C)(O)CCc1c(-c2ccc(O)cc2O)oc2cc3c(c(O)c2c1=O)C=CC(C)(C)O3` [Example. 7, Morusignin L], the IC50 was 160 ± 16.7 µM and the “IC50 value” was 70.1 ± 7.3 µg/mL (≈ 160 µM).
For `O=C1c2c(O)cc(O)cc2OC(c2ccc(O)cc2O)C1O` (centres unmarked) [Example. 8, Dihydromorin], the IC50 was 81.9 ± 3.3 µM and the “IC50 value” was 24.9 ± 1.0 µg/mL (≈ 81.8 µM).
`Cc1ncc(CO)c(CN)c1O` [Pyridoxamine, reference compound] was tested, and the IC50 was 747 ± 213 µM and the “IC50 value” was 125.7 ± 35.8 µg/mL (≈ 747 µM).

— patent US20140018552A1, “USE OF COMPOUNDS ISOLATED FROM MORUS BARK” (Dong Wha Pharm. Co., Ltd., priority 2011, published 2014)
